In patent US20230339927A1, “ATR INHIBITORS AND USES THEREOF” (ANTENGENE DISCOVERY LIMITED, priority 2020, published 2023):

What was measured:
ATR kinase = target: T1, ATR kinase (Homo sapiens, UniProt Q13535); experiment: ATR inhibition assay (mobility shift assay, FAM-RAD17 phosphorylation); format: biochemical; conditions: substrate FAM-RAD17, ATR kinase (Eurofins)
T1 construct: purchased Eurofins 14-953
Method: Assay 1: ATR Inhibition Assay
The assay was developed and conducted at Chempartner. All the test compounds were dissolved in 100% DMSO at concentration of 20 mM, then prepare compounds and conducted the assay as follows:
1) Transfer 80 µl20 mM compound to 40 µl of 100% DMSO in a 96-well plate.
2) Serially dilute the compound by transferring 20 µl to 60 µl of 100% DMSO in the next well and so forth for a total of 10 concentrations.
3) Add 100 µl of 100% DMSO to two empty wells for no compound control and no enzyme control in the same 96-well plate. Mark the plate as source plate.
4) Transfer 40 µl of compound from source plate to a new 384-well plate as the intermediate plate.
5) Transfer 60 nl compounds to assay plate by Echo.
No. D14JP007N) into Kinase base buffer (50 mM HEPES, pH 7.5; 0.0015% Brij-35; 0.01% Triton) to prepare 2x enzyme solution, then add 10 µl of 2x enzyme solution to each well of the 384-well assay plate, incubate at room temperature for 10 min.
8) Incubate at 28° C. for specified period of time. Add 40 µl of stop buffer (100 mM HEPES, pH 7.5; 0.015% Brij-35; 0.2% Coating Reagent #3; 50 mM EDTA) to stop reaction.
9) Collect data on Caliper. Convert conversion values to inhibition values.
wherein “max” stands for DMSO control; “min” stands for low control.
Fit the data in XLFit excel add-in version 5.4.0.8 to obtain IC50 values. Equation used is: […]
wherein X means concentration in a format not transformed to logarithms.

[1] = test system: LoVo (CCL-229) human colorectal cancer cells; experiment: Tumor cell anti-proliferation assay (CTG assay); format: cell-based; conditions: 96 h incubation, CellTiter-Glo, IC50 (Y=50%)
From the text: Assay 2: Tumor Cell Anti-proliferation Assay (CTG Assay)
Human colorectal cancer cells HT-29 (HTB-38) and LoVo (CCL-229) were selected for the CTG assay, the two cell lines were originally obtained from the American Type Culture Collection (ATCC). Add FBS and appropriate additives into base medium to prepare complete medium, then briefly rinse the cell layer with 0.25% (w/v) Trypsin-0.038% (w/v) EDTA solution to remove all traces of serum that contains trypsin inhibitor, after that, add appropriate volume of Trypsin-EDTA solution to flask and observe cells under an inverted microscope until cell layer is dispersed, at last, add appropriate volume of complete growth medium and aspirate cells by gently pipetting. Collect and count numbers with Vi-cell XR and adjust cell density, seed cells into 96-well opaque-walled clear bottom tissue-culture treated plates in the CO2 incubator for 20-24 hours. All the test compounds will be at 10 mM in DMSO. Compounds are then added to the cell media in 3-fold serial dilutions, the final DMSO concentration is 0.5%. Incubate plates for 96 h at 5% CO2, 37° C. Before the measurement, transfer the appropriate volume of CellTiter-Glo Buffer into the amber bottle containing CellTiter-Glo substrate to reconstitute the lyophilized enzyme/substrate mixture, mix gently, this forms the CellTiter-Glo Reagent (Promega Cat. No. G7573). Equilibrate the plate and its contents to room temperature for approximately 30 minutes, then add 100 µL of CellTiter-Glo Reagent to the assay plate, mix contents for 2 minutes on an orbital shaker to induce cell lysis, incubate at room temperature for 10 minutes to stabilize luminescent signal, at last paste the clear bottom with white back seal and record luminescence with Enspire. IC50 and GI50 values were calculated with XLFit curve fitting software using 4 Parameter Logistic Model Y=Bottom + (Top-Bottom)/(1+(IC50/X)^HillSlope).
The following Table 3 provides the IC50 (Y=50%) values for exemplary compounds of Formula (I).

T1 sequence (Q13535 whole entry): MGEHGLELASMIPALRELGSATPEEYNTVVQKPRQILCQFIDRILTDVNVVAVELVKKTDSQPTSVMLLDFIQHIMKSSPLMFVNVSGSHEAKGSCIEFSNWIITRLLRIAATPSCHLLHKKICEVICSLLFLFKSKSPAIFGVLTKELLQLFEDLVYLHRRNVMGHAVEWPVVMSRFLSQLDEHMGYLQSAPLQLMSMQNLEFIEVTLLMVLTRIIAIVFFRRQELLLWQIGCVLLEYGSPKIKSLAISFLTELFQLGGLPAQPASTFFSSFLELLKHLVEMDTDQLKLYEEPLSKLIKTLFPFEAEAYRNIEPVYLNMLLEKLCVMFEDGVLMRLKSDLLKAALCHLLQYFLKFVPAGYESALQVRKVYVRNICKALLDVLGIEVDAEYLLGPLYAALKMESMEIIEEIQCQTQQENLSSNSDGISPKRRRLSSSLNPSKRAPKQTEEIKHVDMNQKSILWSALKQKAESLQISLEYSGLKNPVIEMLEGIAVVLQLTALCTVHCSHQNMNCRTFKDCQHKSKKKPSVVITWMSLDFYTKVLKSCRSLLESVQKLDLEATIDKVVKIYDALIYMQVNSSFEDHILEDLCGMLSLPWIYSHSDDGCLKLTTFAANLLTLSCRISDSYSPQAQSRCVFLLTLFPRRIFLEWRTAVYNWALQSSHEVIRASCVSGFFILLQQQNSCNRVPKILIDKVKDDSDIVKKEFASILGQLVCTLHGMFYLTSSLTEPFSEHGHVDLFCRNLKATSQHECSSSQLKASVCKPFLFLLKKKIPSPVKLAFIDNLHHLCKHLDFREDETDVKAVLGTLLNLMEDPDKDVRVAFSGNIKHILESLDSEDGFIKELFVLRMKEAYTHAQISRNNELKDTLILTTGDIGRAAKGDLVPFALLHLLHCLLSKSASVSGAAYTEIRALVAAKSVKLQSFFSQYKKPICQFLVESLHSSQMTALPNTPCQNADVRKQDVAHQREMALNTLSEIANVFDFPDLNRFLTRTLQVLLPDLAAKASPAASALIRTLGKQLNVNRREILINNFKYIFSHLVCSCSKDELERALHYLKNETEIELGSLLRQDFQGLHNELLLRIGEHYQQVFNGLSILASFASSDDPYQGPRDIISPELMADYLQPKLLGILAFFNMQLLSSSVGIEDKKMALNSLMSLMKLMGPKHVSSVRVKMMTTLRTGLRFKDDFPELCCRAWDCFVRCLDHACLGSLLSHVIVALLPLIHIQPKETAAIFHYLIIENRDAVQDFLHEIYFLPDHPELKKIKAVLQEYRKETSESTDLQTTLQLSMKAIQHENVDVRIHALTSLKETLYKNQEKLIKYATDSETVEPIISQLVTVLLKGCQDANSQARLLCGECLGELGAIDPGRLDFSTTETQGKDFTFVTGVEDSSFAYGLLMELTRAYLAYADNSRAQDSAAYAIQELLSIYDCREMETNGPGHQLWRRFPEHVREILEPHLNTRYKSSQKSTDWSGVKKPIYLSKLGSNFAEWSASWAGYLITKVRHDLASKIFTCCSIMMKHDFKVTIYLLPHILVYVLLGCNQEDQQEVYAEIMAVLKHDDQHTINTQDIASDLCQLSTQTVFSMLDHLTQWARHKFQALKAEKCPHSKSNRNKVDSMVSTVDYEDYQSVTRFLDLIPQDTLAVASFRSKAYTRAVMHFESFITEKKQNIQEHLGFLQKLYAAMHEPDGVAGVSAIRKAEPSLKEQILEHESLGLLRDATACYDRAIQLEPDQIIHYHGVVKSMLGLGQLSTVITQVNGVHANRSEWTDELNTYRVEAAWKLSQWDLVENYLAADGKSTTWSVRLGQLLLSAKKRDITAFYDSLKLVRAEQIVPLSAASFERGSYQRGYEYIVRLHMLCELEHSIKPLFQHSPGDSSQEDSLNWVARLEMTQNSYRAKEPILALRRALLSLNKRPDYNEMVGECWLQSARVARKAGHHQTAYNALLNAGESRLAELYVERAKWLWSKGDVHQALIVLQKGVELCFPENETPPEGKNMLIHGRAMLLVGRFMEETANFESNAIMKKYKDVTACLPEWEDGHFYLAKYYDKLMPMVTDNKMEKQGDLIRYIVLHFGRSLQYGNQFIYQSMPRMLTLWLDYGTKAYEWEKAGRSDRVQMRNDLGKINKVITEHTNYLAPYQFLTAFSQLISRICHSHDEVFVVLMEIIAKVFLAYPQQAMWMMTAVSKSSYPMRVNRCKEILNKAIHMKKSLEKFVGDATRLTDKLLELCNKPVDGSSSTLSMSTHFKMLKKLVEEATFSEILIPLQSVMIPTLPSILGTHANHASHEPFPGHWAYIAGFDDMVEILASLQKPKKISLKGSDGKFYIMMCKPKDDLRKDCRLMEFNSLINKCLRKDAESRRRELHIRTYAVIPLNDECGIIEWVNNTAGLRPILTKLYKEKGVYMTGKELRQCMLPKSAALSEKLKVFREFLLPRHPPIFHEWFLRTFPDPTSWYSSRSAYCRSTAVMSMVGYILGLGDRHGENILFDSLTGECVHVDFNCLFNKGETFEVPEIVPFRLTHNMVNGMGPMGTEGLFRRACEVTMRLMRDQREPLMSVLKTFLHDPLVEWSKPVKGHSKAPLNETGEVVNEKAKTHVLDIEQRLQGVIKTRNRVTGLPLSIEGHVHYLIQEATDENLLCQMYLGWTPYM
T1 sequence (Q8WXE1 whole entry partner): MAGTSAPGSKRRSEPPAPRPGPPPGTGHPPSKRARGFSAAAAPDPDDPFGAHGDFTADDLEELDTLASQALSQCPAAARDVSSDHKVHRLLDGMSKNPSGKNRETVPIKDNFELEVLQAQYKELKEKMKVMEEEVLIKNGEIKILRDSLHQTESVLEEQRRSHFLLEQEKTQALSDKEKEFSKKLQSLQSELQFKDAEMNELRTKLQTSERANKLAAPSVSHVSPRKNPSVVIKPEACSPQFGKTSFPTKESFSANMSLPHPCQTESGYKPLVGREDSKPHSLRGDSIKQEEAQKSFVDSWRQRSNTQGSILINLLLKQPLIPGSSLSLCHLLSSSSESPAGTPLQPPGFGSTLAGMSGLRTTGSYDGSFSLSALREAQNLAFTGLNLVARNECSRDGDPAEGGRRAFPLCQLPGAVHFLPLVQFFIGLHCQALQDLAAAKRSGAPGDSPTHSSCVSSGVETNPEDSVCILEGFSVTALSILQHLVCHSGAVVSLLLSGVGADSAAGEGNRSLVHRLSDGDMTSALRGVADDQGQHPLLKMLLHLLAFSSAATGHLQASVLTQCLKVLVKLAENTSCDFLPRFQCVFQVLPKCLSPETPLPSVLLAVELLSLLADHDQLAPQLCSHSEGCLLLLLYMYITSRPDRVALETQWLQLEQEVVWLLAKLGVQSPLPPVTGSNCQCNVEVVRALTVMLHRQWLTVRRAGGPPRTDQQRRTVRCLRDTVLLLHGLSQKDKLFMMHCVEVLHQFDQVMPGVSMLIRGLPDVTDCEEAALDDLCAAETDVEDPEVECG

SMILES | IC50 (ATR kinase) [µM] | IC50 [1] [µM]
C[C@@H]1COCCN1c1cc(C2(S(C)(=O)=O)CC2)cc(Nc2ccn[nH]2)n1 [Compound 1, (R)-6-(3-methylmorpholino)-4-(1-(methylsulfonyl)cyclopropyl)-N-(1H-pyrazol-5-yl)pyridin-2-amine] | 0.0144 | 0.334
C[C@@H]1COCCN1c1cc(C2(S(C)(=O)=O)CC2)nc(Nc2ccn[nH]2)n1 [Compound 5, (R)-4-(3-methylmorpholino)-6-(1-(methylsulfonyl)cyclopropyl)-N-(1H-pyrazol-5-yl)pyrimidin-2-amine] | – | 0.653
C[C@@H]1COCCN1c1cc(C(C)(C)S(C)(=O)=O)nc(Nc2ccn[nH]2)n1 [Compound 7, (R)-4-(3-methylmorpholino)-6-(2-(methylsulfonyl)propan-2-yl)-N-(1H-pyrazol-5-yl)pyrimidin-2-amine] | 0.028 | 0.872
Cc1cc(Nc2nc(N3CCOC[C@H]3C)cc(C(C)(C)S(C)(=O)=O)n2)[nH]n1 [Compound 8, (R)-N-(3-methyl-1H-pyrazol-5-yl)-4-(3-methylmorpholino)-6-(2-(methylsulfonyl)propan-2-yl)pyrimidin-2-amine] | 0.0132 | 0.398
Cc1cc(Nc2nc(N3CCOC[C@H]3C)cc(C(C)(C)C#N)n2)[nH]n1 [Compound 10, (R)-2-methyl-2-(2-((3-methyl-1H-pyrazol-5-yl)amino)-6-(3-methylmorpho-lino)pyrimidin-4-yl)propanenitrile] | 0.01 | 0.263
C[C@@H]1COCCN1c1cc(C2(S(C)(=O)=O)CCOCC2)nc(Nc2ccn[nH]2)n1 [Compound 11, (R)-4-(3-methylmorpholino)-6-(4-(methylsulfonyl)tetrahydro-2H-pyran-4-yl)-N-(1H-pyrazol-5-yl)pyrimidin-2-amine] | – | 1.31
Cc1cc(Nc2nc(N3CCOC[C@H]3C)cc(C3(S(C)(=O)=O)CCOCC3)n2)[nH]n1 [Compound 12, (R)-N-(3-methyl-1H-pyrazol-5-yl)-4-(3-methylmorpholino)-6-(4-(methylsulfonyl)tetrahydro-2H-pyran-4-yl)pyrimidin-2-amine] | 0.013 | 0.611
C[C@@H]1COCCN1c1cc(N(C)S(C)(=O)=O)cc(Nc2ccn[nH]2)n1 [Compound 13, (R)-N-(2-((1H-pyrazol-5-yl)amino)-6-(3-methylmorpholino)pyridin-4-yl)-N-methylmethanesulfonamide] | – | 0.807
Cc1cnn(C)c1-c1cc(N2CCOC[C@H]2C)nc(Nc2ccn[nH]2)c1CO [Compound 15, (R)-(2-((1H-pyrazol-5-yl)amino)-4-(1,4-dimethyl-1H-pyrazol-5-yl)-6-(3-methylmorpholino)pyridin-3-yl)methanol] | – | 0.515
C[C@@H]1COCCN1c1cc(C2(S(C)(=O)=O)CC2)c(CO)c(Nc2ccn[nH]2)n1 [Compound 17, (R)-(2-((1H-pyrazol-5-yl)amino)-6-(3-methylmorpholino)-4-(1-(methylsulfo-nyl)cyclopropyl)pyridin-3-yl)methanol] | – | 0.594
Cc1cc(Nc2cc(C3(S(C)(=O)=O)CC3)cc(N3CCOC[C@H]3C)n2)[nH]n1 [Compound 19, 4-(1-methanesulfonylcyclopropyl)-N-(3-methyl-1H-pyrazol-5-yl)-6-[(3R)-3-methylmorpholin-4-yl]pyridin-2-amine] | 0.0103 | 0.225
C[C@@H]1COCCN1c1cc(C(C)(C)C#N)cc(Nc2ccn[nH]2)n1 [Compound 24, (R)-2-(2-((1H-pyrazol-5-yl)amino)-6-(3-methylmorpholino)pyridin-4-yl)-2-methylpropanenitrile] | 0.017 | 0.428
Cc1cnn(C)c1-c1cc(N2CCOC[C@H]2C)nc(Nc2ccn[nH]2)c1F [Compound 33, (R)-4-(1,4-dimethyl-1H-pyrazol-5-yl)-3-fluoro-6-(3-methylmorpholino)-N-(1H-pyrazol-5-yl)pyridin-2-amine] | – | 0.842
C[C@@H]1COCCN1c1cc(C2(S(C)(=O)=O)CC2)c(F)c(Nc2ccn[nH]2)n1 [Compound 34, (R)-3-fluoro-6-(3-methylmorpholino)-4-(1-(methylsulfonyl)cyclopropyl)-N-(1H-pyrazol-5-yl)pyridin-2-amine] | – | 0.442
Cc1cc(Nc2cc(C3(S(C)(=O)=O)CCOCC3)cc(N3CCOC[C@H]3C)n2)[nH]n1 [Compound 36, (R)-N-(3-methyl-1H-pyrazol-5-yl)-6-(3-methylmorpholino)-4-(4-(methylsulfonyl)tetrahydro-2H-pyran-4-yl)pyridin-2-amine] | – | 0.966
C[C@@H]1COCCN1c1cc(C2(C#N)CCCC2)cc(Nc2ccn[nH]2)n1 [Compound 37, 1-{2-[(3R)-3-methylmorpholin-4-yl]-6-[(1H-pyrazol-5-yl)amino]pyridin-4-yl}cyclopentane-1-carbonitrile] | – | 0.8
Cc1cc(Nc2cc(-c3c(C)cnn3C)cc(N3CCOC[C@H]3C)n2)[nH]n1 [Compound 46, (R)-4-(1,4-dimethyl-1H-pyrazol-5-yl)-N-(3-methyl-1H-pyrazol-5-yl)-6-(3-methylmorpholino)pyridin-2-amine] | – | 0.41
Cc1cc(Nc2cc(-c3c(C)noc3C)cc(N3CCOC[C@H]3C)n2)[nH]n1 [Compound 47, (R)-4-(3,5-dimethylisoxazol-4-yl)-N-(3-methyl-1H-pyrazol-5-yl)-6-(3-methylmorpholino)pyridin-2-amine] | – | 0.39

More lines, in order of falling IC50 [1], values ahead:

IC50 (ATR kinase) [µM] | IC50 [1] [µM] | SMILES
– | 1.01 | C[C@@H]1COCCN1c1cc(C2(S(C)(=O)=O)CCOCC2)cc(Nc2ccn[nH]2)n1 [Compound 45, (R)-6-(3-methylmorpholino)-4-(4-(methylsulfonyl)tetrahydro-2H-pyran-4-yl)-N-(1H-pyrazol-5-yl)pyridin-2-amine]
– | 0.844 | C[C@@H]1COCCN1c1cc(C2(C#N)CCOCC2)cc(Nc2ccn[nH]2)n1 [Compound 39, (R)-4-(2-((1H-pyrazol-5-yl)amino)-6-(3-methylmorpholino)pyridin-4-yl) tetrahydro-2H-pyran-4-carbonitrile]
– | 0.698 | C[C@@H]1COCCN1c1cc(C2(C#N)CCCC2)nc(Nc2ccn[nH]2)n1 [Compound 40, (R)-1-(2-((1H-pyrazol-5-yl)amino)-6-(3-methylmorpholino)pyrimidin-4-yl) cyclopentane-1-carbonitrile]
0.022 | 0.538 | Cc1cc(Nc2nc(N3CCOC[C@H]3C)cc(C3(C#N)CC3)n2)[nH]n1 [Compound 9, (R)-1-(2-((3-methyl-1H-pyrazol-5-yl)amino)-6-(3-methylmorpholino)pyrimidin-4-yl)cyclopropanecarbonitrile]
0.016 | 0.401 | Cc1cc(Nc2nc(N3CCOC[C@H]3C)cc(C3(S(C)(=O)=O)CC3)n2)[nH]n1 [Compound 6, 4-(1-methanesulfonylcyclopropyl)-N-(3-methyl-1H-pyrazol-5-yl)-6-[(3R)-3-methylmorpholin-4-yl]pyrimidin-2-amine]
0.0155 | 0.388 | Cc1cc(Nc2cc(-c3c(C)nnn3C)cc(N3CCOC[C@H]3C)n2)[nH]n1 [Compound 23, 4-(dimethyl-1H-1,2,3-triazol-5-yl)-N-(3-methyl-1H-pyrazol-5-yl)-6-[(3R)-3-methylmorpholin-4-yl]pyridin-2-amine]
0.0163 | 0.385 | Cc1cnn(C)c1-c1cc(Nc2ccn[nH]2)nc(N2CCOC[C@H]2C)c1 [Compound 4, (R)-4-(1,4-dimethyl-1H-pyrazol-5-yl)-6-(3-methylmorpholino)-N-(1H-pyrazol-5-yl)pyridin-2-amine]
– | 0.192 | Cc1noc(C)c1-c1cc(Nc2ccn[nH]2)nc(N2CCOC[C@H]2C)c1 [Compound 22, (R)-4-(3,5-dimethylisoxazol-4-yl)-6-(3-methylmorpholino)-N-(1H-pyrazol-5-yl)pyridin-2-amine]
